Experimental data published in patent publication US9012651B2, “TRPV3 modulators” (AbbVie Inc., priority 2011, dated 2015).

Target: human TRPV3 receptors (Homo sapiens (Human), UniProt Q8NET8)
Test: Calcium flux assay (FLIPR TETRA), inhibition of the 2-APB response
Assay type: cell-based
Settings: recombinant HEK293 cells stably expressing TRPV3, Calcium-4 dye, 2-APB at its EC80
In short: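 Responses are given relative to the maximal 2-APB signal in the absence of compound, using peak fluorescence over baseline. Measured by FLIPR Tetra calcium flux in stable human and mouse TRPV3 HEK293 cells after 90-120 min dark dye incubation.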

Sequence of human TRPV3 receptors (Q8NET8 whole entry): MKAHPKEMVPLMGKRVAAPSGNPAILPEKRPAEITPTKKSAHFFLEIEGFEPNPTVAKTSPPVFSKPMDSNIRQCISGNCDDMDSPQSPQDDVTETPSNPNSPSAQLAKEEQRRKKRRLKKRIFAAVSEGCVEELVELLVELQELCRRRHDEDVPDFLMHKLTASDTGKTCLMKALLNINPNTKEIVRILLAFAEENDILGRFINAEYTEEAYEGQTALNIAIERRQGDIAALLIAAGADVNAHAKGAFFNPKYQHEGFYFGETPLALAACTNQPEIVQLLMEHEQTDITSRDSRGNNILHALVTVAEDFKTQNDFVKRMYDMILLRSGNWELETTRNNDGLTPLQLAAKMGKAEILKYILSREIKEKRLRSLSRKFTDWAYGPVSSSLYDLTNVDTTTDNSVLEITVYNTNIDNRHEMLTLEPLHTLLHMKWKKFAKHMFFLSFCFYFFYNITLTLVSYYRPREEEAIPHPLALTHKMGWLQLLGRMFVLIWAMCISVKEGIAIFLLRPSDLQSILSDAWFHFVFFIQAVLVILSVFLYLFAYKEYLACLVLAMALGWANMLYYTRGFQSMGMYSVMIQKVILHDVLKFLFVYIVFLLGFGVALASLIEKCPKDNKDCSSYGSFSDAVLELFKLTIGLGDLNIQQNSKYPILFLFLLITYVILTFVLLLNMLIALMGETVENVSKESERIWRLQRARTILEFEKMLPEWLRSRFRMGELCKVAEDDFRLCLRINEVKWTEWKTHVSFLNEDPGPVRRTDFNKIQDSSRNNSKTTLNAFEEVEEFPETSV

Row | SMILES | IC50 [nM]
1 | CC(C)[C@H](CO)NCc1nc(-c2ccnn2C)ccc1F [Example 252, (2R)-2-({[3-fluoro-6-(1-methyl-1H-pyrazol-5-yl)pyridin-2-yl]methyl}amino)-3-methylbutan-1-ol] | > 20000
2 | Cc1cc(-c2ccc(F)c(CN[C@@H](CO)C(C)C)n2)cnc1N1CCOCC1 [Example 253, (2R)-2-({[5-fluoro-5′-methyl-6′-(morpholin-4-yl)-2,3′-bipyridin-6-yl]methyl}amino)-3-methylbutan-1-ol] | 700
3 | CC(C)[C@H](CO)NCc1nc(-c2ccc(N3CCN(C)CC3)nc2)ccc1F [Example 254, (2R)-2-({[5-fluoro-6′-(4-methylpiperazin-1-yl)-2,3′-bipyridin-6-yl]methyl}amino)-3-methylbutan-1-ol] | > 20000
4 | CC(C)[C@H](CO)NCc1nc(-c2ccc3sccc3c2)ccc1F [Example 255, (2R)-2-({[6-(1-benzothiophen-5-yl)-3-fluoropyridin-2-yl]methyl}amino)-3-methylbutan-1-ol] | 230
5 | CC(C)[C@H](CO)NCc1nc(-c2ccc3occc3c2)ccc1F [Example 256, (2R)-2-({[6-(1-benzofuran-5-yl)-3-fluoropyridin-2-yl]methyl}amino)-3-methylbutan-1-ol] | 420
6 | CC(C)[C@H](CO)NCc1nc([C@H]2CC[C@@H](C(F)(F)F)CC2)ccc1F [Example 257, (2R)-2-[({3-fluoro-6-[cis-4-(trifluoromethyl)cyclohexyl]pyridin-2-yl}methyl)amino]-3-methylbutan-1-ol] | 340
7 | CC(C)[C@H](CO)NCc1nc([C@H]2CC[C@H](C(F)(F)F)CC2)ccc1F [Example 258, (2R)-2-[({3-fluoro-6-[trans-4-(trifluoromethyl)cyclohexyl]pyridin-2-yl}methyl)amino]-3-methylbutan-1-ol] | 290
8 | CC(C)[C@H](CO)NCc1nc(-c2cc3c(OCc4ccccc4)cccc3n2C(=O)OC(C)(C)C)ccc1F [Example 259, tert-butyl 4-(benzyloxy)-2-[5-fluoro-6-({[(2R)-1-hydroxy-3-methylbutan-2-yl]amino}methyl)pyridin-2-yl]-1H-indole-1-carboxylate] | 520
9 | CC(C)[C@H](CO)NCc1nc(-c2cccc(-n3cccn3)c2)ccc1F [Example 260, (2R)-2-[({3-fluoro-6-[3-(1H-pyrazol-1-yl)phenyl]pyridin-2-yl}methyl)amino]-3-methylbutan-1-ol] | 300
10 | CC(C)[C@H](CO)NCc1nc(-c2cnc(N(C)C)nc2)ccc1F [Example 261, (2R)-2-[({6-[2-(dimethylamino)pyrimidin-5-yl]-3-fluoropyridin-2-yl}methyl)amino]-3-methylbutan-1-ol] | 750
11 | CCCCOc1ccc(-c2cccc(CN[C@@H](CO)C(C)C)n2)cc1Cl [Example 262, (2R)-2-({[6-(4-butoxy-3-chlorophenyl)pyridin-2-yl]methyl}amino)-3-methylbutan-1-ol] | 810
12 | CC(C)[C@H](CO)NCc1cccc(C#Cc2ccc(S(F)(F)(F)(F)F)cc2)n1 [Example 263, (2R)-3-methyl-2-{[(6-{[4-(pentafluoro-λ^6-sulfanyl)phenyl]ethynyl}pyridin-2-yl)methyl]amino}butan-1-ol] | 230
13 | CC(C)[C@H](CO)NCc1cccc(C#Cc2ccc(F)cc2)n1 [Example 264, (2R)-2-[({6-[(4-fluorophenyl)ethynyl]pyridin-2-yl}methyl)amino]-3-methylbutan-1-ol] | 170
14 | CC(C)[C@H](CO)NCc1cccc(C#Cc2ccc(F)c(F)c2)n1 [Example 265, (2R)-2-[({6-[(3,4-difluorophenyl)ethynyl]pyridin-2-yl}methyl)amino]-3-methylbutan-1-ol] | 190
15 | OCC1(NCc2cccc(-c3ccc(F)c(Cl)c3)n2)CCCC1 [Example 266, [1-({[6-(3-chloro-4-fluorophenyl)pyridin-2-yl]methyl}amino)cyclopentyl]methanol] | 390
